The compounds below were run on PARP PARylation in HeLa cells (assay: PARylation assay in HeLa cells). Details: H2O2-provoked DNA damage.
Type: cell-based

Compound | EC50
2-phenyl-2,3,5,10- tetrahydro- [1,2]diazepino[3,4, 5,6-def]carbazol- 6(1H)-one [Compound 5] | 10.1 nM
CN(C)c1ccc(C2CC3=NNC(=O)c4cc(F)cc5[nH]c(c3c45)C2)cc1 (stereo not drawn) [Compound 12, 2-(4-(dimethylamino)phe-nyl)-8-fluoro-2,3,5,10-tetrahydro-[1,2]diazepino[3,4,5,6-def]carbazol-6(1H)-one] | 26.6 nM

Same assay, conditions: Homo sapiens, H2O2-provoked DNA damage

Compound | EC50
CN(C)CCn1c2c3c4c(cccc41)C(=O)NN=C3CCC2 [Compound 37, 10-(2-(dimethylamino)ethyl)-2,3,5,10-tetrahydro-[1,2]diazepino[3,4,5,6-def]carbazol-6(1H)-one] | 22 nM
CC(C)(C)CCN1CC2=NNC(=O)c3cccc4[nH]c(c2c34)C1 [Compound 54, 2-(3,3-dimethylbutyl)-2,3,4,9-tetrahydro-2,4,9,10-tetraazayclohepta[def]fluoren-8(1H)-one] | 23 nM
O=C1NN=C2CN(C(=O)OCc3ccccc3)Cc3[nH]c4cccc1c4c32 [Compound 20, Benzyl 8-oxo-3,4,8,9-tetrahydro-2,4,9,10-tetraazacyclohepta[def]fluorene-2(1H)-carboxylate] | 7.3 nM
CN(C)CCn1c2c3c4c(cc(F)cc41)C(=O)NN=C3CN(C(=O)C1CC1)C2 [Compound 50, 2-(Cyclopropanecarbonyl)-4-(2-(dimethylamino)ethyl)-6-fluoro-2,3,4,9-tetrahydro-2,4,9,10-tetraazacyclohepta[def]fluoren-8(1H)-one] | 21 nM
CC(C)C1CC2=NNC(=O)c3cccc4[nH]c(c2c34)C1 (stereo not drawn) [Compound 6, 2-isopropyl-2,3,5,10-tetrahydro-[1,2]diazepino[3,4,5,6-def]carbazol-6(1H)-one] | 3.9 nM
CCCCN1CC2=NNC(=O)c3cc(F)cc4[nH]c(c2c34)C1 [Compound 59, 2-Butyl-6-fluoro-2,3,4,9-tetrahydro-2,4,9,10-tetraazacyclohepta[def]fluoren-8(1H)-one] | 2 nM
O=C1NN=C2CN(C(=O)C3CC3)Cc3[nH]c4cccc1c4c32 [Compound 47, 2-(cyclopropanecarbonyl)-2,3,4,9-tetrahydro-2,4,9,10-tetraazacyclohepta[def]fluoren-8(1H)-one] | 6.9 nM
CC(C)(C)C(=O)N1CC2=NNC(=O)c3cc(F)cc4[nH]c(c2c34)C1 [Compound 52, 6-Fluoro-2-pivaloyl-2,3,4,9-tetrahydro-2,4,9,10-tetraazacyclohepta[def]fluoren-8(1H)-one] | 13.5 nM
CC1(C)CC2=NNC(=O)c3cccc4c3c2c(n4CCO)C1 [Compound 67, 10-(2-hydroxyethyl)-2,2-dimethyl-2,3,5,10-tetrahydro-[1,2]diazepino[3,4,5,6-def]carbazol-6(1H)-one] | 247 nM
CN1N=C2CC(C)(C)Cc3c2c2c(cccc2n3C)C1=O [Compound 25, 2,2,5,10-tetramethyl-2,3,5,10-tetrahydro-[1,2]diazepino[3,4,5,6-def]carbazol-6(1H)-one] | > 1000 nM
C[C@]12CCCN1CC1=NNC(=O)c3cc(F)cc4[nH]c2c1c34 [Compound 69] | 0.6 nM
CC1CC2=NNC(=O)c3cccc4[nH]c(c2c34)C1 (stereo not drawn) [Compound 3, 2-methyl-2,3,5,10-tetrahydro-[1,2]diazepino[3,4,5,6-def]carbazol-6(1H)-one] | 4.6 nM
CN(C)CCN1CC2=NNC(=O)c3cc(F)cc4[nH]c(c2c34)C1 [Compound 61, 2-(2-(Dimethylamino)ethyl)-6-fluoro-2,3,4,9-tetrahydro-2,4,9,10-tetraazacyclohepta[def]fluoren-8(1H)-one] | 42 nM
O=C1NN=C2CN(C3CCCCC3)Cc3[nH]c4cccc1c4c32 [Compound 53, 2-Cyclohexyl-2,3,4,9-tetrahydro-2,4,9, 10-tetraazacyclohepta[def]fluoren-8(1H)-one] | 20 nM
O=C1NN=C2CN(C(=O)OCc3ccccc3)Cc3[nH]c4cc(F)cc1c4c32 [Compound 21, Benzyl 6-fluoro-8-oxo-3,4,8,9-tetrahydro-2,4,9,10-tetraazacyclohepta[def]fluorene-2(1H)-carboxylate] | 14 nM
CN(C)CCN1CC2=NNC(=O)c3cccc4[nH]c(c2c34)C1 [Compound 60, 2-(2-(dimethylamino)ethyl)-2,3,4,9-tetrahydro-2,4,9,10-tetraazacyclohepta[def]fluoren-8(1H)-one] | 68.5 nM
CN(C)c1ccc(C2CC3=NNC(=O)c4cccc5[nH]c(c3c45)C2)cc1 (stereo not drawn) [Compound 13, 2-(4-(dimethylamino)phe-nyl)-2,3,5,10-tetrahydro-[1,2]diazepino[3,4,5,6-def]carbazol-6(1H)-one] | 77.6 nM
CN1CC2=NNC(=O)c3cccc4[nH]c(c2c34)C1 [Compound 44, 2-Methyl-2,3,4,9-tetrahydro-2,4,9,10-tetraazacyclohepta[def]fluoren-8(1H)-one] | 24 nM
CC(C)(C)OC(=O)N[C@@H](Cc1ccccc1)C(=O)N1CC2=NNC(=O)c3cccc4[nH]c(c2c34)C1 [Compound 63, (S)-tert-butyl (1-oxo-1-(8-oxo-8,9-dihydro-2,4,9,10-tetraazacyclohepta[def]fluoren-2(1H,3H,4H)-yl)-3-phenylpropan-2-yl)carbamate] | 235 nM
CC(C)N1CC2=NNC(=O)c3cccc4[nH]c(c2c34)C1 [Compound 45, 2-Isopropyl-2,3,4,9-tetrahydro-2,4,9,10-tetraazacyclohepta[def]fluoren-8(1H)-one] | 3.8 nM
CCCN1CC2=NNC(=O)c3cccc4[nH]c(c2c34)C1 [Compound 56, 2-Propyl-2,3,4,9-tetrahydro-2,4,9,10-tetraazacyclohepta[def]fluoren-8(1H)-one] | 6.4 nM
CC(C)(C)C(=O)N1CC2=NNC(=O)c3cccc4[nH]c(c2c34)C1 [Compound 51, 2-Pivaloyl-2,3,4,9-tetrahydro-2,4,9,10-tetraazacyclohepta[def]fluoren-8(1H)-one] | 9.6 nM
CC1(C)CCc2[nH]c3cccc4c3c2C1=NNC4=O [Compound 4, 3,3-dimethyl-2,3,5,10-tetrahydro-[1,2]diazepino[3,4,5,6-def]carbazol-6(1H)-one] | 46.7 nM
CN(C)CCn1c2c3c4c(cccc41)C(=O)NN=C3CN(C(=O)C1CC1)C2 [Compound 48, 2-(cyclopropanecarbonyl)-4-(2-(dimethylamino)ethyl)-2,3,4,9-tetrahydro-2,4,9,10-tetraazacyclohepta[def]fluoren-8(1H)-one] | 6 nM
CC1(C)CC2=NNC(=O)c3cc(F)cc4[nH]c(c2c34)C1=O [Compound 26, 8-Fluoro-2,2-dimethyl-2,3-dihydro-[1,2]diazepino[3,4,5,6-def]carbazole-1,6(5H,10H)-dione] | 4.5 nM
